# Results reported in PubChem BioAssay (NCI).
#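 Test compounds were applied to cells in 96-well plates for 48 hours at 5 doses. At the GI50, growth is halved. Definition used: TGI = concentration required for complete inhibition of growth.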
# Key:
# Experiment in all cases: NCI tumour cell line growth inhibition, 48 h
# [1] = system: SNB-19 CNS
# [2] = system: HCT-15 colon
# [3] = system: OVCAR-3 ovarian
# [4] = system: T-47D breast
# [5] = system: HOP-92 NSCLC
# [6] = system: IGROV1 ovarian
# [7] = system: NCI/ADR-RES ovarian
# [8] = system: RXF 393 renal
# [9] = system: SF-295 CNS
# [10] = system: MDA-MB-435
Compound,TGI [1],TGI [2],TGI [3],TGI [4],TGI [5],TGI [6],TGI [7],TGI [8],TGI [9],TGI [10],GI50 [1],GI50 [2],GI50 [3],GI50 [4],GI50 [5],GI50 [6],GI50 [7],GI50 [8],GI50 [9],GI50 [10]
COc1cc(/C=C2\N=C(c3ccccc3)N(c3nc4ccccc4s3)C2=O)cc(OC)c1OC,> 100 µM,> 100 µM,60.4 µM,> 100 µM,74.5 µM,> 100 µM,62 µM,50.7 µM,> 100 µM,84.6 µM,,,,,,,,,,
Cc1cc(-c2nc3ccc(F)cc3s2)ccc1NC(=O)C(N)CCCCN (stereo not given),25 µM,23.6 µM,22.4 µM,16.1 µM,27.7 µM,17.6 µM,34.1 µM,25.3 µM,19.3 µM,5.34 µM,,,,,,,,,,
COc1ccc2nc(N/N=C/c3ccc(C)s3)cc(C)c2c1,34.8 µM,32.4 µM,38.1 µM,46.4 µM,43.2 µM,90 µM,66.4 µM,41.6 µM,37.8 µM,60.6 µM,,,,,,,,,,
CC1(C)C(CBr)=[N+]([O-])C(C)(C)N1O,> 10 µM,> 8.12 µM,> 6.74 µM,5.24 µM,5.5 µM,> 10 µM,> 10 µM,8.15 µM,> 10 µM,> 8.08 µM,,,,,,,,,,
CCOC(=O)c1ccc(Nc2nc3ccccc3n3cccc23)cc1,> 100 µM,> 100 µM,> 100 µM,47.7 µM,> 100 µM,> 100 µM,> 100 µM,49.7 µM,> 100 µM,> 100 µM,,,,,,,,,,
Cc1ccc(N2C=Nn3c(nc4sc5c(c4c3=O)CCCC5)C2)cc1,> 100 µM,> 100 µM,> 100 µM,> 100 µM,> 100 µM,> 100 µM,> 100 µM,> 100 µM,> 100 µM,> 100 µM,,,,,,,,,,
CC(=O)OC(OC(C)=O)c1c2ccccc2cc2ccccc12,96.3 µM,56 µM,67.3 µM,85.2 µM,57.5 µM,55.9 µM,46.7 µM,31 µM,45.3 µM,> 100 µM,,,,,,,,,,
CC(=O)/C(=C/N1CC(=O)NC1=S)C(=O)Nc1ccccc1C,> 100 µM,> 100 µM,> 100 µM,> 100 µM,> 100 µM,> 100 µM,> 100 µM,> 100 µM,> 100 µM,> 100 µM,,,,,,,,,,
CCOC(=O)C(=CNc1ccc(S(N)(=O)=O)cc1)C(=O)OCC,> 100 µM,> 100 µM,> 100 µM,> 100 µM,> 100 µM,> 100 µM,> 100 µM,> 100 µM,> 100 µM,> 100 µM,,,,,,,,,,
Cc1cc(OP2(=O)NCc3ccncc3O2)ccc1Cl (stereo not given),> 100 µM,> 100 µM,> 100 µM,> 100 µM,> 100 µM,> 100 µM,> 100 µM,> 100 µM,> 100 µM,> 100 µM,,,,,,,,,,
COc1c(O)cc2c(c1O)C(=O)C(Cc1ccc(O)cc1)CO2 (stereo not given),> 100 µM,> 100 µM,> 100 µM,> 100 µM,> 100 µM,> 100 µM,> 100 µM,> 100 µM,> 100 µM,76.8 µM,,,,,,,,,,
Cc1c(C)c(S(=O)(=O)N(CCCN)OCCCN)c(C)c2c1OC(C)(C)CC2,24.9 µM,29.3 µM,29.5 µM,33.5 µM,19.9 µM,20.3 µM,60.1 µM,21.4 µM,30.4 µM,29.6 µM,,,,,,,,,,
COC(=O)[C@H](Cc1ccccc1)NC(=O)OCC1OC(n2cc(C)c(=O)[nH]c2=O)CC1N=[N+]=[N-] (stereo not given in full),> 100 µM,> 100 µM,> 100 µM,> 100 µM,> 100 µM,> 100 µM,> 100 µM,> 100 µM,> 100 µM,> 100 µM,,,,,,,,,,
O=C(N/N=C\c1ccc(N(CCCl)CCCl)cc1)c1cccnc1,> 100 µM,> 100 µM,> 100 µM,> 100 µM,> 100 µM,> 100 µM,> 100 µM,85.7 µM,73.2 µM,> 100 µM,45 µM,37.1 µM,30.5 µM,26.5 µM,30.6 µM,> 100 µM,28.3 µM,19.7 µM,6.31 µM,33.4 µM
CC12CP(=O)(O)CC1C2(Cl)Cl (stereo not given),> 100 µM,> 100 µM,> 100 µM,> 100 µM,> 100 µM,> 100 µM,> 100 µM,> 100 µM,> 100 µM,> 100 µM,,,,,,,,,,
C=C(C)[C@@]12C[C@H](OC(=O)[C@H](O)[C@@H](NC(=O)c3ccccc3)c3ccccc3)C(C)=C1[C@@H](OC(C)=O)C(=O)[C@@]1(C)C([C@@H]2OC(=O)c2cc(F)cc(F)c2)C2(OC(C)=O)CO[C@@H]2C[C@@H]1O (stereo not given in full),> 10 µM,> 5.21 µM,1.92 µM,> 8.57 µM,> 10 µM,> 10 µM,6.63 µM,0.582 µM,> 10 µM,0.0818 µM,,,,,,,,,,
